Data taken from publication PMC4382466 (Toxicologic pathology, 2014).
Read-outs that look alike come from different tables or passages of the source.

What was measured:
[1] = test system: dogs; settings: two times the mouse LD50; ref NationalTechnicalInformationService; cited from earlier work
[2] = test system: Fischer 344 rats; settings: rat, in vivo
[3] = test system: rats; settings: one-tenth the mouse LD10, ref NationalTechnicalInformationService; cited from earlier work
[4] = test system: Fischer 344 rats; assay: Clinical signs and body weights; format: in vivo; settings: n=6/sex/group
[5] = test system: γH2AX; assay: γH2AX immunofluorescence staining of kidney sections; format: in vivo, Fischer 344 rats; settings: five imaged fields, one rat/sex/group
[6] = test system: Fischer 344 rats; settings: rat, in vivo; remark: listed apart in the source
[7] = test system: Fischer 344 rats; settings: rat, in vivo; remark: listed apart in the source
[8] = test system: Fischer 344 rats; assay: Mesna as mitigating co-treatment of batracylin-induced toxicity; settings: male rats, mesna study, Day 5
[9] = design: species or system Fischer 344 rats; settings: in vivo, po
[10] = test system: γH2AX; assay: γH2AX immunofluorescence staining of bone marrow; format: in vivo, Fischer 344 rats
[11] = test system: Fischer 344 rats; assay: Kidney and urinary bladder histopathology; format: in vivo; settings: 6 animals
[12] = oral batracylin 590 mg/m^2; ref Ames et al., 1991; cited from earlier work
[13] = male, Fischer 344, rat, 16 mg/kg
[14] = male, Fischer 344, rat, 32 mg/kg

Nc1ccc2c(c1)CN1C(=O)c3ccccc3C1=N2 [batracylin, 8-aminoisoindolo[1,2-b]quinazolin-12(10H)-one]
Toxicity of oral batracylin in dogs [1]: only slight toxicity
Lymphocytes, % of the total WBC population [2]: 19%
Neutrophils, % of the total WBC population [2]: 78%
Toxicity of oral batracylin in rats [3]: lethal
Rats displaying evidence of toxicity (clinical signs) ([4]; Day 3, high-dose group (32 mg/kg/day)): all of the rats
Rats displaying evidence of toxicity (clinical signs) ([4]; Day 3, low-dose group (16 mg/kg/day)): a third of the rats
Nuclei γH2AX positive, renal cortex ([5]; female rat, 16 mg/kg batracylin): 22%
Nuclei γH2AX positive, renal cortex ([5]; female rat, 32 mg/kg batracylin): 15%
Nuclei γH2AX positive, renal cortex ([5]; male rat, 16 mg/kg batracylin): 13%
Nuclei γH2AX positive, renal cortex ([5]; male rat, 32 mg/kg batracylin): 29%
Protein casts, severity [6]: mild to moderate
Tubular dilation, severity [6]: mild
Urothelial atrophy, severity [6]: mild to moderate
Urothelial vacuolation, severity [6]: minimal to mild
Incidence of visibly red urine [7]: 4 of the 6
Non-inflammatory tubular degeneration, severity [8]: moderate
Tubular epithelial regeneration, severity [8]: mild
AUC(0-inf) [9, 13]: 118 ng·h/mL
AUC(0-t) [9, 13]: 98.3 ng·h/mL
Cmax [9, 13]: 11.1 ng/mL
Tmax [9, 13]: 4 h
k el [9, 13]: 4.83e-05 s⁻¹
half-life ([9]; male, Fischer 344, rat, 16 mg/kg, Half-life): 4 h
AUC(0-inf) [9, 14]: 144 ng·h/mL
AUC(0-t) [9, 14]: 112 ng·h/mL
Cmax [9, 14]: 11.8 ng/mL
Tmax [9, 14]: 4 h
half-life [9, 14]: 11.1 h
k el [9, 14]: 1.72e-05 s⁻¹
half-life ([9]; male, Fischer 344, rat, 32 mg/kg, Half-life): 11 h
half-life ([9]; male, Fischer 344, rat, 32 mg/kg, half-life): 4 to 11 h
Bone marrow cellular nuclei γH2AX positive ([10]; 4 of 6 low-dose females (16 mg/kg)): Less than 0.5%
Bone marrow cellular nuclei γH2AX positive ([10]; all 6 low-dose males (16 mg/kg)): Less than 0.5%
Kidney: non-inflammatory tubular degeneration, severity (incidence) ([11]; 16 mg/kg/day po x4 days, females): Mild (4), Moderate (2)
Kidney: non-inflammatory tubular degeneration, severity (incidence) ([11]; 16 mg/kg/day po x4 days, males): Mild (6)
Kidney: non-inflammatory tubular degeneration, severity (incidence) ([11]; 32 mg/kg/day po x4 days, females): Moderate (4), Marked (2)
Kidney: non-inflammatory tubular degeneration, severity (incidence) ([11]; 32 mg/kg/day po x4 days, males): Moderate (6)

N-acetylbatracylin [NAB]
increase of AUC0-24 hr for a 2-fold increase in dose ([9]; rat): 2.9 fold
AUC0-24 ([9]; rat, 16 mg/kg): 15150 ng·h/mL
AUC0-∞ ([9]; rat, 16 mg/kg): 15240 ng·h/mL
Cmax ([9]; rat, 16 mg/kg): 2507 ng/mL
Kel ([9]; rat, 16 mg/kg): 0.755 h⁻¹
Tmax ([9]; rat, 16 mg/kg): 4 h
AUC0-24 ([9]; rat, 32 mg/kg): 44620 ng·h/mL
AUC0-∞ ([9]; rat, 32 mg/kg): 45170 ng·h/mL
Cmax ([9]; rat, 32 mg/kg): 7214 ng/mL
Kel ([9]; rat, 32 mg/kg): 0.108 h⁻¹
NAB AUC0-24 hr, times greater than the corresponding value for batracylin ([9]; rat, 32 mg/kg): 398 times
NAB Cmax, times greater than the corresponding value for batracylin ([9]; rat, 32 mg/kg): 611 times
Tmax ([9]; rat, 32 mg/kg): 4 h
Systemic levels of NAB, times greater in the rat than in the mouse [12]: approximately 9 times
